In publication PMC9515202, “Bis-pharmacophore of cinnamaldehyde-clubbed thiosemicarbazones as potent carbonic anhydrase-II inhibitors” (Scientific Reports, 2022) one finds melting point, IC50 and inhibition data, which are given here for 17 compounds.

The target in data set [1] is bovine carbonic anhydrase II (bCA-II) (Bos taurus, UniProt P00921). The experiment in a line: Carbonic anhydrase II (CA-II) inhibition, spectrophotometric p-nitrophenyl acetate assay. Format: biochemical. The settings on record: pH 7.4, 25 °C; for IC50: bCA-II, substrate p-NPA, triplicate; for inhibition at 500 µM: pH 7.4, bCA-II, compound at 500 µM, read-out: % Inhibtion (500 µM). As for the experimental part:
Evaluation of carbonic anhydrase inhibition was done by spectrophotometric technique as narrated by Pocker and Meany with little alteration[69],[70] as described previously. The process was carried out in HEPES-Tris buffer (20 mM) having pH 7.4 at 25 °C. Each inhibitory well contained 20 µL of CA-II enzyme solution (0.1 mg/mL HEPES-Tris buffer), 140 µL of HEPES-Tris buffer solution, 20 µL of the compound to be analyzed in HPLC grade DMSO. At 25 °C, the solution mixture was pre-incubated for 15 min. Substrate p-nitrophenyl acetate (p-NPA) (0.7 mM) was prepared in HPLC grade methanol and the reaction was initiated by the addition of 20 µL to a well in a 96-well-plate. The quantity of product formed was measured at 400 nm continually at 1 min gap for 30 min in a 96-well-plate using xMARK microplate spectrophotometer, Bio-Rad (USA). The inhibition activity of the controlled compound was considered as 100%. All the experiments were performed in triplicates of each used concentration, and the conclusions are expressed as a mean of the triplicate.
All thiosemicarbazones derivatives (3a–q) were tested against bovine carbonic anhydrase II (bCA-II).

Structures are written as SMILES.

Chain of bovine carbonic anhydrase II (bCA-II) (P00921 whole entry): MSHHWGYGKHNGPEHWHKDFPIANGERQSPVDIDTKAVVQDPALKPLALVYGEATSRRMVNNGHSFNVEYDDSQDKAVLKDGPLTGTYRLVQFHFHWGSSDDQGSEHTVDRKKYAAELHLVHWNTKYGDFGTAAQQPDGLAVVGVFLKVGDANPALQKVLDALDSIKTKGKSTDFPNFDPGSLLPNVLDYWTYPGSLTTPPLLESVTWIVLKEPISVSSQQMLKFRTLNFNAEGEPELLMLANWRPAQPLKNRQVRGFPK

Turning to `CN(C)c1ccc(/C=C/C=N/NC(=S)Nc2ccc(Br)cc2)cc1` [3g, (E)-N-(4-Bromophenyl)-2-((E)-3-(4-(dimethylamino)phenyl)allylidene)hydrazine-1-carbothioamide], the melting point stood at 240 °C. In addition, in data set [1], the IC50 turned out to be 12.1 ± 1.01 µM and the inhibition at 500 µM amounted to 93%.

For the compound `CN(C)c1ccc(/C=C/C=N/NC(=S)Nc2ccc(F)cc2F)cc1` [3h, (E)-N-(2,4-Difluorophenyl)-2-((E)-3-(4-(dimethylamino)phenyl)allylidene)hydrazine-1-carbothioamide], the melting point amounted to 202 °C. In data set [1], the IC50 was found to be 13.4 ± 0.52 µM and the inhibition at 500 µM was found to be 77.1%.

`CN(C)c1ccc(/C=C/C=N/NC(=S)NCc2ccc(Cl)cc2)cc1` [3k] had a melting point of 196 °C.

In turn, `COc1cccc(NC(=S)N/N=C/C=C/c2ccc(N(C)C)cc2)c1` [3f, (E)-2-((E)-3-(4-(Dimethylamino)phenyl)allylidene)-N-(3-methoxyphenyl)hydrazine-1-carbothioamide] yielded a melting point of 198 °C. Moreover, in data set [1], the half-maximal inhibitory concentration (IC50) worked out at 17.9 ± 1.23 µM and the inhibition at 500 µM amounted to 89.7%.

Regarding `CN(C)c1ccc(/C=C/C=N/NC(=S)Nc2ccccc2F)cc1` [3e, (E)-2-((E)-3-(4-(Dimethylamino)phenyl)allylidene)-N-(2-fluorophenyl)hydrazine-1-carbothioamide], the melting point amounted to 189 °C. In data set [1], it took 19.7 ± 0.23 µM to reach half-maximal inhibition (IC50) and the inhibition at 500 µM amounted to 93.4%.

As for `CN(C)c1ccc(/C=C/C=N/NC(=S)NCCc2ccccc2)cc1` [3c], the melting point is 180 °C.

Compound `CN(C)c1ccc(/C=C/C=N/NC(=S)Nc2cccc(F)c2)cc1` [3j, (E)-2-((E)-3-(4-(Dimethylamino)phenyl)allylidene)-N-(3-fluorophenyl)hydrazine-1-carbothioamide] showed a melting point of 218 °C. For the same compound, in data set [1], the inhibition at 500 µM is < 50%.

For the compound `CN(C)c1ccc(/C=C/C=N/NC(=S)Nc2cccc(C#N)c2)cc1` [3o, (E)-N-(3-Cyanophenyl)-2-((E)-3-(4-(dimethylamino)phenyl)allylidene)hydrazine-1-carbothioamide], the melting point turned out to be 215 °C. Moreover, in data set [1], the IC50 came to 21.8 ± 0.85 µM and the inhibition at 500 µM stood at 81.8%.

For the compound `Cc1cccc(C)c1NC(=S)N/N=C/C=C/c1ccc(N(C)C)cc1` [3b, (E)-2-((E)-3-(4-(Dimethylamino)phenyl)allylidene)-N-(2,6-dimethylphenyl)hydrazine-1-carbothioamide], the melting point worked out at 239 °C. In data set [1], half-maximal inhibition (IC50) was put at 40.4 ± 0.89 µM and the inhibition at 500 µM was 78.1%.

On to `Cc1ccc(NC(=S)N/N=C/C=C/c2ccc(N(C)C)cc2)c(C)c1` [3l, (E)-2-((E)-3-(4-(Dimethylamino)phenyl)allylidene)-N-(2,4-dimethylphenyl)hydrazine-1-carbothioamide], for which the melting point is 232 °C. Besides, in data set [1], the IC50 worked out at 18.3 ± 1.32 µM and the inhibition at 500 µM is 78.2%.

`CC(C)c1ccc(NC(=S)N/N=C/C=C/c2ccc(N(C)C)cc2)cc1` [3i, (E)-2-((E)-3-(4-(Dimethylamino)phenyl)allylidene)-N-(4-isopropylphenyl)hydrazine-1-carbothioamide] gave a melting point of 220 °C. In addition, in data set [1], the IC50 stood at 33.6 ± 0.42 µM and the inhibition at 500 µM worked out at 84.9%.

On to `CN(C)c1ccc(/C=C/C=N/NC(=S)Nc2cccc(Cl)c2Cl)cc1` [3d, (E)-N-(2,3-Dichlorophenyl)-2-((E)-3-(4-(dimethylamino)phenyl)allylidene)hydrazine-1-carbothioamide], for which the melting point came to 192 °C. In data set [1], half-maximal inhibition (IC50) required 36.6 ± 0.15 µM and the inhibition at 500 µM was 82.2%.

As for `CN(C)c1ccc(/C=C/C=N/NC(=S)Nc2ccccc2)cc1` [3p, (E)-2-((E)-3-(4-(Dimethylamino)phenyl)allylidene)-N-phenylhydrazine-1-carbothioamide], the melting point stood at 218 °C.

For `CN(C)c1ccc(/C=C/C=N/NC(=S)Nc2ccc(Cl)cc2)cc1` [3m, (E)-N-(4-Chlorophenyl)-2-((E)-3-(4-(dimethylamino)phenyl)allylidene)hydrazine-1-carbothioamide], the melting point amounted to 238 °C. In data set [1], 14.7 ± 1.42 µM corresponded to half-maximal inhibition (IC50) and the inhibition at 500 µM is 79.9%.

As to `CN(C)c1ccc(/C=C/C=N/NC(=S)NC2CCCCC2)cc1` [3q, (E)-N-Cyclohexyl-2-((E)-3-(4-(dimethylamino)phenyl)allylidene)hydrazine-1-carbothioamide], the melting point came to 252 °C.

In the case of `Cc1ccc(NC(=S)N/N=C/C=C/c2ccc(N(C)C)cc2)cc1` [3a, (E)-2-((E)-3-(4-(Dimethylamino)phenyl)allylidene)-N-(p-tolyl)hydrazine-1-carbothioamide], the melting point amounted to 232 °C. In data set [1], the IC50 amounted to 46.6 ± 0.62 µM and the inhibition at 500 µM turned out to be 82%.

On to `CN(C)c1ccc(/C=C/C=N/NC(=S)NCc2ccc(F)cc2)cc1` [3n], for which the melting point was 192 °C. In addition, in data set [1], the 50% inhibitory concentration (IC50) was found to be 10.3 ± 0.62 µM and the inhibition at 500 µM was found to be 63.2%.
